These results are taken from article PMC4183655, “Discovery and Optimization of Small-Molecule Ligands for the CBP/p300 Bromodomains” (Journal of the American Chemical Society, 2014).

Each structure is given as a SMILES string. Where two headings read alike, the source gives them in different places. Some results are limits rather than exact numbers.

The subject of one data set is p53–CBP interaction. The settings on record: at 50 μM; cited from earlier work.
Another data set deals with CBP BRD. The settings on record: cited from earlier work.
The target in data set [1] is T1, BAZ2A (Homo sapiens, UniProt Q9UIF9).
T1 construct: using recombinant BRDs as surrogates of full-length protein
T1 sequence (Q9UIF9 1793-1897 limits assumed): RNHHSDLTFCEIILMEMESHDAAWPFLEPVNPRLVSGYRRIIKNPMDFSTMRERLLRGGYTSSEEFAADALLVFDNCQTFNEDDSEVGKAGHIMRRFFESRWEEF
Nature of the data set: DSF (ΔTm) thermal stability assay. It is filed as binding. Conditions: compound 10 µM.

Data set [2] deals with T2, ATAD2 (Homo sapiens, UniProt Q6PL18).
T2 construct: using recombinant BRDs as surrogates of full-length protein
T2 sequence (Q6PL18 980-1092 limits assumed): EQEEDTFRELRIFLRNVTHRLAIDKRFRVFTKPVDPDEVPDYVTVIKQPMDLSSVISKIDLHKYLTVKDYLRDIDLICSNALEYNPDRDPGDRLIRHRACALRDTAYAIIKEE
Nature of the data set: Peptide displacement AlphaScreen. It is filed as binding.

The target in data set [3] is T3, CBP (Homo sapiens, UniProt Q92793). Nature of the data set: DSF (ΔTm) thermal stability assay. The class given is binding. Conditions: compound concentration 10 μM, mean ± SEM (number of measurements).
T3 sequence (Q92793 1085-1192 limits assumed): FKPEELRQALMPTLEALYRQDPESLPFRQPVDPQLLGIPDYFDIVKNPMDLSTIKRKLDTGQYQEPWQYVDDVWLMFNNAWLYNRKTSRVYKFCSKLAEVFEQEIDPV
For data set [4], the target named is T2, ATAD2. Nature of the data set: DSF (ΔTm) thermal stability assay. The class given is binding. The settings on record: compound 10 µM.
Data set [5] deals with T4, BRD4(1) (Homo sapiens, UniProt O60885). As to the kind of experiment: DSF (ΔTm) thermal stability assay. It is filed as binding. The settings on record: compound concentration 10 μM, mean ± SEM (number of measurements).
Data set [6] has as its target T1, BAZ2A. Nature of the data set: Peptide displacement AlphaScreen. It is filed as binding. (In general: In Alpha technology, singlet oxygen from a donor bead excites a nearby acceptor bead.)
Data set [7] addresses T4, BRD4(1). Nature of the data set: Peptide displacement AlphaScreen. It is filed as binding.
The target of data set [8] is T3, CBP. As to the kind of experiment: Peptide displacement AlphaScreen. The class given is binding.
For data set [9], the target named is T5, p300 (Homo sapiens, UniProt Q09472).
T5 sequence (Q09472 1049-1156 limits assumed): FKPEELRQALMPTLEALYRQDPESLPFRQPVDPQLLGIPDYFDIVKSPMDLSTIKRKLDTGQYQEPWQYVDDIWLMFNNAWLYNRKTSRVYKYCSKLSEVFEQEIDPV
Nature of the data set: Isothermal titration calorimetry (ITC). On the technique in general: ITC needs no label: the signal is the heat of the interaction.

Data set [10] concerns GFP-tagged 3 × CBP BRD construct. Nature of the data set: Fluorescence recovery after photo-bleaching (FRAP) assay. Conditions: HeLa cells, SAHA-treated, compound 0.1 μM.
Data set [11] has as its target T4, BRD4(1). Nature of the data set: Isothermal titration calorimetry (ITC).
Data set [12] has as its target T6, BRD9 (Homo sapiens, UniProt Q9H8M2).
T6 construct: using recombinant BRDs as surrogates of full-length protein
T6 sequence (Q9H8M2 136-240 limits assumed): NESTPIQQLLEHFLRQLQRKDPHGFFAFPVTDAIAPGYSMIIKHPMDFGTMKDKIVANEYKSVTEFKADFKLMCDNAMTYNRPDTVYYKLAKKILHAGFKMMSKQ
Nature of the data set: Peptide displacement AlphaScreen. It is filed as binding.

Data set [13] has as its target T3, CBP. As to the kind of experiment: Isothermal titration calorimetry (ITC).
Data set [14] concerns the target T7, CECR2 (Homo sapiens, UniProt Q9BXF3).
T7 construct: using recombinant BRDs as surrogates of full-length protein
Nature of the data set: Peptide displacement AlphaScreen. The class given is binding.

Data set [15] has as its target T5, p300. As to the kind of experiment: Peptide displacement AlphaScreen. It is filed as binding.
For data set [16], the target named is T7, CECR2. Nature of the data set: DSF (ΔTm) selectivity panel. The class given is binding. Conditions: compound 10 µM.
Data set [17] concerns the target T5, p300. As to the kind of experiment: DSF (ΔTm) thermal stability assay. The class given is binding. Conditions: compound 10 µM.
Data set [18] relates to p53-induced p21 activation. Conditions: luciferase reporter-gene assay; read-out: Inhibition of p53-induced p21 activation IC50; cited from earlier work. Background: Reporter assays use an easily measured gene product as a stand-in for the process of interest.
In the next data set the target is T8, alpha 2A (h) (Homo sapiens, UniProt P08913).
T8 construct: CEREP (BioPrint Full Panel, contract assay)
T8 sequence (P08913 whole entry): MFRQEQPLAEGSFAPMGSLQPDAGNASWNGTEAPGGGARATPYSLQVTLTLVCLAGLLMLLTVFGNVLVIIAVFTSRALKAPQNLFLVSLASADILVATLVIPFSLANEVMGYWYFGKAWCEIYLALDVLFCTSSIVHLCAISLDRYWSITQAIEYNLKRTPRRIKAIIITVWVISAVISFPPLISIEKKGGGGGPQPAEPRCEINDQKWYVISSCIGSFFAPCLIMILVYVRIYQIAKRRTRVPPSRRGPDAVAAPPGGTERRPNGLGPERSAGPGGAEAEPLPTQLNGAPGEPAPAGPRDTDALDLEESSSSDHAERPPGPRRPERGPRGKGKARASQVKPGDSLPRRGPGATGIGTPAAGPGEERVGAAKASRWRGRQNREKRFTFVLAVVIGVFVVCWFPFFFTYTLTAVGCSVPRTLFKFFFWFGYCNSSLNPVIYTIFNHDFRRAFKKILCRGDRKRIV
Nature of the data set: Cerep profiling, antagonist radioligand. It is filed as binding.

For the next data set, the target named is T9, PDE5 (h) (non-selective) (Homo sapiens, UniProt O76074).
T9 construct: CEREP (BioPrint Full Panel, contract assay)
Nature of the data set: Cerep profiling. It is filed as biochemical.

In another data set the target is PAF (h) (Homo sapiens, UniProt P25105). Nature of the data set: Cerep profiling, agonist radioligand.
Chain of PAF (h) (P25105 whole entry): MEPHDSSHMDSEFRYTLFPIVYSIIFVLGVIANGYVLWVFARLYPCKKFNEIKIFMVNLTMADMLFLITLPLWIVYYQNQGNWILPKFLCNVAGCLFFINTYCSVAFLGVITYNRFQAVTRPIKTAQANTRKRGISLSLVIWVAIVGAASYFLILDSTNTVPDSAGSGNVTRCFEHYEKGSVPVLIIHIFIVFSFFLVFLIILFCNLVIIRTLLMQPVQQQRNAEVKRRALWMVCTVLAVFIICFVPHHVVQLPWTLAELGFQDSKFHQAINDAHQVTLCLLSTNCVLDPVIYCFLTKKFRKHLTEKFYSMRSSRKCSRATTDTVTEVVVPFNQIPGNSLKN
The target in the next data set is T10, alpha 2C (h) (Homo sapiens, UniProt P18825).
T10 construct: CEREP (BioPrint Full Panel, contract assay)
T10 sequence (P18825 whole entry): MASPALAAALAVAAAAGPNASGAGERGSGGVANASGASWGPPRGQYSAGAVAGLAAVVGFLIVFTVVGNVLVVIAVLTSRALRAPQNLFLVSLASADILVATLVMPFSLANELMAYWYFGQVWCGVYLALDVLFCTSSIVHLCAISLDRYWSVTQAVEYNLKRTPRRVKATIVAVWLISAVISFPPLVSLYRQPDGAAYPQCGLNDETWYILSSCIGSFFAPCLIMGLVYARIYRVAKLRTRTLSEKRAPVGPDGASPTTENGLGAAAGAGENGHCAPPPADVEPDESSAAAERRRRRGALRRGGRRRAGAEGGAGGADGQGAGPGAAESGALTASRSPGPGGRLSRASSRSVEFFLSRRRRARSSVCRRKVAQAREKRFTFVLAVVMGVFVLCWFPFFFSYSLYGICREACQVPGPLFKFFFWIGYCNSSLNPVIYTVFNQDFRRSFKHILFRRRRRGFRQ
Nature of the data set: Cerep profiling, antagonist radioligand. It is filed as binding.

The next data set concerns the target T11, BRD3(1) (Homo sapiens, UniProt Q15059).
T11 construct: using recombinant BRDs as surrogates of full-length protein
Nature of the data set: DSF (ΔTm) selectivity panel. The class given is binding. The settings on record: compound 10 µM.

A short description of a further data set: Cytotoxicity assay. Conditions: human, U2OS osteosarcoma cells.
For data set [19], the system named is p53-driven luciferase activity in RKO cells. As to the kind of experiment: p53 luciferase reporter assay. The class given is cell-based, human. The settings on record: compound 24 h then doxorubicin 0.3 μM 16 h, read-out: Inhibition of doxorubicin-induced p53-driven luciferase activity IC50. As to the method: Refinement was carried out in
refinement cycles. […] The
Cell culture and reagents
Fluorescence Recovery After Photobleaching (FRAP) Assay
In brief RKO cells were transfected with
well plate format using Fugene HD (Roche).
Compounds were dissolved in dimethyl sulfoxide
5 ul of compound solution was added
mixing plates returned to the incubator.

Data set [20] is described as follows: Human liver microsome (HLM) stability assay. Conditions: microsomes, 1 h. It is filed as in vitro ADME.
The target in a further data set is T12, BRD2(1) (Homo sapiens, UniProt P25440).
T12 construct: using recombinant BRDs as surrogates of full-length protein
T12 sequence (P25440 74-180 limits assumed): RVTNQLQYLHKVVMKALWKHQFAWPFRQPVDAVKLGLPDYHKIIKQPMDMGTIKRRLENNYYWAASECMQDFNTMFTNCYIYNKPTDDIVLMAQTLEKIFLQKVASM
As to the kind of experiment: DSF (ΔTm) selectivity panel. The settings on record: compound 10 µM. The class given is binding.

For data set [21], the target named is T6, BRD9. As to the kind of experiment: DSF (ΔTm) selectivity panel. The class given is binding. The settings on record: compound 10 µM.

T7 sequence (Q9BXF3 434-538 limits assumed): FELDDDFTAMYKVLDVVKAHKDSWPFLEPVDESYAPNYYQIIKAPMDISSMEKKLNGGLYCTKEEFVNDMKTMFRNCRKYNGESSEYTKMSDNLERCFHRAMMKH
T11 sequence (Q15059 34-140 limits assumed): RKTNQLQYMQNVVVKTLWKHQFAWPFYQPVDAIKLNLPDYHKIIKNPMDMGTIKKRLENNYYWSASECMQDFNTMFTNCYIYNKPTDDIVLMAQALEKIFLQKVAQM

In general, Kd refers to the free concentration of one partner at which half of the binding sites on the other are occupied at equilibrium, for simple one-to-one binding. Regarding `CC(=O)n1c2c(c3ccccc31)CCCC2=O` [Compound 1], the “Effect on the p53–CBP interaction in a competition assay” value in the data set with p53–CBP interaction is “block”. The Kd on CBP BRD was 19600 nM.
The term ΔTm denotes the shift of the melting midpoint relative to a reference. Take `Cc1noc(C)c1-c1ccc2c(c1)nc(CCc1ccccc1)n2CCN1CCN(C)CC1` [Compound 18]: the ΔTm at 10 µM on BAZ2A [1] was -0.52 °C; on CBP [3], 2 °C; at ATAD2 [4] it was 0.03 °C; on BRD4(1) [5], 1.2 °C. For the same compound, the IC50 on ATAD2 [2] worked out at 19000 nM; on BAZ2A [6], 14000 nM; on BRD4(1) [7], 4100 nM; at CBP [8] (read-out: AlphaScreen IC50 CBP), 2000 nM.
On to `Cc1noc(C)c1-c1ccc2c(c1)nc(CCc1ccccc1)n2CCN1CCOCC1` [Compound 17], for which the “Selectivity for p300 over BRD4(1)” value at p300 [9] (from ITC Kd values) is 2.7 fold. Besides, the IC50 at ATAD2 [2] is 42000 nM; at BRD4(1) [7], 9800 nM; at CBP [8] (mean ± SEM (number of measurements), read-out: CBP AlphaScreen pIC50 (converted)), 158 nM; at CBP [8] (read-out: AlphaScreen IC50 CBP), 820 nM. Besides, the ΔTm at 10 µM on CBP [3] turned out to be 3.9 °C; at ATAD2 [4], 0.16 °C; at BRD4(1) [5] it was 2.1 °C. In addition, the “DSF ΔTm CBP” value on CBP [3] (10 µM) was 6.5 °C. At BRD4(1) [5] (10 µM), the “DSF ΔTm BRD4(1)” value was 2.7 °C. Also, the “FRAP half-time of fluorescence recovery (t1/2), GFP-tagged 3× CBP BRD” value in [10] is on record as 0.66 s. The compound also had a Kd at BRD4(1) [11] (ITC Kd BRD4(1), 15 °C) of 950 ± 44 nM. The “Selectivity for CBP over BRD4(1)” value at BRD4(1) [11] (from ITC Kd values) is given as 3.0 fold.
For the compound `Cc1noc(C)c1-c1ccc2c(c1)nc(CCc1ccccc1)n2CCN1CCCCC1` [Compound 16], on p300 [9], the “ITC N (molar binding ratio of the ligand-protein interaction), p300” value is listed as 1.00 ± 0.0028. Also, the “ITC ∆G, p300” value on p300 [9] is listed as -8.60 kcal/mol. In addition, at p300 [9], the “ITC ∆H, p300” value was -6.09 ± 0.0245 kcal/mol. Moreover, the Kd on p300 [9] was 347 nM; at CBP [13] (ITC Ka, CBP), 323 nM; on BRD4(1) [11] (ITC Ka, BRD4(1)), 952 nM. Moreover, on p300 [9] (At T = 298.15 K), the “ITC 9T∆S, p300” value is -2.51 kcal/mol. Further, the IC50 on BRD9 [12] is over 25000 nM; at CECR2 [14] it was 12000 nM; on p300 [15], 140 nM; at BRD4(1) [7], 2400 nM; on CBP [8] (read-out: AlphaScreen IC50 CBP) it was 180 nM. Besides, the ΔTm at 10 µM at CBP [3] was determined as 6.5 °C; at BRD4(1) [5] it was 2.7 °C; at CECR2 [16], 1 °C; on p300 [17] it was 7.9 °C. Further, the “ITC N (molar binding ratio of the ligand-protein interaction), CBP” value at CBP [13] was 1.00 ± 0.00223. In addition, the “ITC ∆G, CBP” value at CBP [13] is listed as -8.66 kcal/mol. The “ITC ∆H, CBP” value at CBP [13] was -5.76 ± 0.0184 kcal/mol. The “ITC 9T∆S, CBP” value on CBP [13] (At T = 298.15 K) was -2.90 kcal/mol. Also, the “ITC N (molar binding ratio of the ligand-protein interaction), BRD4(1)” value on BRD4(1) [11] was determined as 1.10 ± 0.005. On BRD4(1) [11], the “ITC ∆G, BRD4(1)” value is reported as -8.01 kcal/mol. Moreover, the “ITC ∆H, BRD4(1)” value at BRD4(1) [11] was -5.86 ± 0.0338 kcal/mol. The “ITC 9T∆S, BRD4(1)” value at BRD4(1) [11] (At T = 298.15 K) is reported as -2.15 kcal/mol.
As for `Cc1cc(/N=N/c2cc(S(=O)(=O)O)c(C)cc2C)c(N)cc1O` [Compound 2], the IC50 in data set [18] is 5000 nM.
Usually CC50 stands for the concentration that lowers cell viability or growth by half. Turning to `COc1ccc(CCc2nc3cc(-c4c(C)noc4C)ccc3n2C[C@H](C)N2CCOCC2)cc1Cl` [Compound 59], the IC50 was determined as 570 nM at alpha 2A (h); 150 nM on PDE5 (h) (non-selective); 540 nM at PAF (h); 110 nM on alpha 2C (h); 1540 nM in [19] (Homo sapiens, RKO); 1500 nM in data set [19]. For the same compound, the shift in melting temperature (ΔTm) at 10 µM at BRD4(1) [5], on BRD3(1) and on BRD2(1) was 1 to 2 °C each time. In “Cytotoxicity assay”, this compound came in with a cytotoxic concentration (CC50) at 24 h of 80000 nM. The CC50 at 72 h in “Cytotoxicity assay” was found to be 8100 nM. The “HLM stability: compound detected after 60 min” value in data set [20] is “no compound was detected”. Besides, the “FRAP half-time of fluorescence recovery (t1/2), GFP-tagged 3× CBP BRD” value in data set [10] was 0.60 s.
Consider `Cc1noc(C)c1-c1ccc2c(c1)nc(CCc1ccccc1)n2CCN1CCCC1` [Compound 15], for which the IC50 stood at 100000 nM on BRD9 [12], 9100 nM on BRD4(1) [7] and 840 nM at CBP [8] (read-out: AlphaScreen IC50 CBP). Moreover, the ΔTm at 10 µM at CBP [3] was found to be 5.4 °C; on BRD4(1) [5] it was 2.7 °C; at BRD9 [21], 1.5 °C.
